Results on two compounds are retold here after ChEMBL document CHEMBL1147513, “Sensitivity of neuronal nicotinic acetylcholine receptors to the opiate antagonists naltrexone and naloxone: receptor blockade and up-regulation” (Bioorg Med Chem Lett, 2004).

For assay [1], the system named is HEK293. In words: Decay-time constant of ACh ([…])-evoked currents in the presence of 3 uM naltrexone in HEK293 cells. Format: functional, Homo sapiens.
The subject of assay [2] is HEK293. In words: Decay-time constant of ACh ([…])-evoked currents in the presence of 30 uM naltrexone in HEK293 cells. Format: functional, Homo sapiens.
The subject of assay [3] is HEK293. In words: Decay-time constant of ACh ([…])-evoked currents in the presence of 300 uM naltrexone in HEK293 cells. It counts as functional, Homo sapiens.
Assay [4] has as its system HEK293. In words: Decay-time constant of ACh ([…])-evoked currents in the presence of 10 uM naltrexone in HEK293 cells. Format: functional, Homo sapiens.
Assay [5] concerns HEK293. In words: Decay-time constant of ACh ([…])-evoked currents in the presence of 0.3 uM naltrexone in HEK293 cells. It counts as functional, Homo sapiens.
Assay [6] deals with HEK293. In words: Decay-time constant of ACh ([…])-evoked currents in the presence of 100 uM naltrexone in HEK293 cells. It counts as functional, Homo sapiens.
For assay [7], the system named is HEK293. In words: Decay-time constant of ACh ([…])-evoked currents in the presence of 0.1 uM naltrexone in HEK293 cells. Format: functional, Homo sapiens.
Assay [8] has as its system HEK293. In words: Decay-time constant of ACh ([…])-evoked currents in the presence of 1 uM naltrexone in HEK293 cells. Format: functional, Homo sapiens.
The subject of assay [9] is HEK293. In words: Decay-time constant of ACh (100 uM) -evoked currents in the absence of naltrexone in HEK293 cells. Format: functional, Homo sapiens.
Assay [10] has as its target T1, Neuronal acetylcholine receptor subunit alpha-4 (Rattus norvegicus, UniProt P09483). In words: Blockage of Nicotinic acetylcholine receptor alpha4-beta2 noncompetitively in CA1 stratum radiatum interneurons.
Assay [11] can be described thus: Increase in the charge carried by ACh- induced currents in CA1 pyramidal neurons of […] cultures by naltrexone (0.3 uM). Format: functional, Pyramidal neuron.
Assay [12] concerns the target T1, Neuronal acetylcholine receptor subunit alpha-4. In words: Blockage of Nicotinic acetylcholine receptor alpha4-beta2 noncompetitively in acute hippocampal slices. Format: tissue-based, Hippocampus.
The target in assay [13] is T2, Neuronal acetylcholine receptor subunit alpha-7 (Homo sapiens, UniProt P36544). In words: Blockage of Nicotinic acetylcholine receptor alpha-7 noncompetitively in cultured hippocampal neurons. Format: tissue-based, Hippocampus.
Assay [14] in a line: Increase in the charge carried by choline- induced currents in […] organotypic hippocampal cultures by naltrexone (0.3 uM). Format: functional, Hippocampus.
Assay [15] is described as follows: Increase in the charge carried by ACh- induced currents in […] organotypic hippocampal cultures by naltrexone (0.3 uM). It counts as functional, Hippocampus.
Assay [16] can be described thus: Increase in the charge carried by choline- induced currents in CA1 pyramidal neurons of […] cultures by naltrexone (0.3 uM). It counts as functional, Pyramidal neuron.
Assay [17] deals with T2, Neuronal acetylcholine receptor subunit alpha-7. In words: Blockage of Nicotinic acetylcholine receptor alpha-7 noncompetitively in hippocampal primary cultures. Format: tissue-based, Hippocampus.
The target in assay [18] is T1, Neuronal acetylcholine receptor subunit alpha-4. In words: Blockage of Nicotinic acetylcholine receptor alpha4-beta2 noncompetitively in cultured hippocampal neurons. It counts as tissue-based, Hippocampus.

For orientation: IC50 means the concentration at which inhibition is half-maximal. Higher therefore signals a need for much substance.

T1 sequence (P09483 whole entry): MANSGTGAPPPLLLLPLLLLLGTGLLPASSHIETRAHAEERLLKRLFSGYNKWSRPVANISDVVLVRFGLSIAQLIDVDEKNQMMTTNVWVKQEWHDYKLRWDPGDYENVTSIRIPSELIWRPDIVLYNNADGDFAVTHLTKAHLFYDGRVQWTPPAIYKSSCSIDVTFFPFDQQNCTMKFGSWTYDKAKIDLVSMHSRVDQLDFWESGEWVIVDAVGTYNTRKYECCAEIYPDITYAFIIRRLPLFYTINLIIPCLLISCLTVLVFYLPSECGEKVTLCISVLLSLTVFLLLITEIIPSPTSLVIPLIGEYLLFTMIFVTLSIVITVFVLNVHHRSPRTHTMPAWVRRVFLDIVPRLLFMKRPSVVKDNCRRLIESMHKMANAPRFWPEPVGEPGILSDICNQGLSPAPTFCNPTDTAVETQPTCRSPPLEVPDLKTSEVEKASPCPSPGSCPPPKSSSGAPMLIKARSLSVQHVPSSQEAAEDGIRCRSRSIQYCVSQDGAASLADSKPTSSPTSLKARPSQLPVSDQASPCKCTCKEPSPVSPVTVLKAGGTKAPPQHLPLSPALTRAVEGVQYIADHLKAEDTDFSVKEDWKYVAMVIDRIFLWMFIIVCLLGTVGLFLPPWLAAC
T2 sequence (P36544 whole entry): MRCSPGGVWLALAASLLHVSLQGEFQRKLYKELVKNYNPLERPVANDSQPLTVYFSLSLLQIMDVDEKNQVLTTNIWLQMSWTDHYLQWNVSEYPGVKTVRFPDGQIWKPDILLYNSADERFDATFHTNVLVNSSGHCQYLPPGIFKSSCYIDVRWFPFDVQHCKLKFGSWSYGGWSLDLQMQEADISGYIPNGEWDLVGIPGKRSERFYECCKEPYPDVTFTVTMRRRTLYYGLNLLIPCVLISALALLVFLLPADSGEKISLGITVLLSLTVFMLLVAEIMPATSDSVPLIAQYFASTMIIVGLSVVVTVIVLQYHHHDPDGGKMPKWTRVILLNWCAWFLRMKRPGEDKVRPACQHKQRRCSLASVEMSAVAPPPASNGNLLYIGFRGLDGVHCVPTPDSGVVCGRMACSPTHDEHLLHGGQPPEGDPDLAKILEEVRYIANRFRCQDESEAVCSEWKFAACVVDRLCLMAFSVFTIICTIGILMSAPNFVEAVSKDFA

`CC(=O)OCC[N+](C)(C)C` [ACETYLCHOLINE]: the Decay-time constant in the assay on HEK293 [1] was found to be 508.74 ms; with HEK293 [2], 422.02 ms; in the assay with HEK293 [3], 202.53 ms; in the assay on HEK293 [4], 467.84 ms; in the assay with HEK293 [5], 495.98 ms; in the assay on HEK293 [6] it was 257.74 ms. For the same compound, the Decay-time constant is on record as 509.96 ms with HEK293 [7], 543.11 ms with HEK293 [8] and 547.88 ms in the assay with HEK293 [9].
As for `O=C1CC[C@@]2(O)[C@H]3Cc4ccc(O)c5c4[C@@]2(CCN3CC2CC2)[C@H]1O5` [NALTREXONE], the IC50 in assay [10] came to 141 µM; in assay [12], 31 µM; in assay [13], 30 µM; in assay [17], 25 µM; in assay [18], 139 µM. Moreover, the Increase in assay [11] stood at 169%; in assay [14], 283%; in [15] it was 214%; in [16], 210%.
